Source: patent US8945847B2, “Methods and kits for ascertaining biosafety of an agent” (Yissum Research Development Company of the Hebrew …, priority 2010, dated 2015)

Assays:
[1] = tested on: HiPSC EBs (hTERT-BJ1 derived clone #28); test: DNA microarray gene expression profiling of RA-treated HiPSC embryoid bodies; format: cell-based, human; settings: RA 1 μM, seven days
Protocol: Thalidomide was tested twice and caffeine once.

[2] = tested on: AFP, SOX17, HOXA1, NCAM1 in EBs; test: Immunofluorescent labeling of treated EBs; format: cell-based, human
Protocol: Immunofluorescent labeling: EBs were treated for seven days with either 1.5% ethanol or 1 μM all-trans-retinoic acid (see Drug Treatment section). EBs were let to settle and perfused with 10% sucrose-PBS solution for 30 minutes at 4° C., followed by an additional step in 30% sucrose-PBS solution for 1 hr at 4° C., with gentle shaking. EBs were then frozen in Tissue-Tek OCT solution (Sakura Finetek, USA) and cut into 9 μm sections. Samples were fixed following sectioning with PBS buffered 4% formaldehyde solution for 3 minutes. Blocking was performed with PBS, 2% BSA, 0.1% Triton x-100 solution for 1 hour at room temperature. Sections were incubated overnight at 4° C. with the following primary antibodies; AFP at 1:50 dilution (SC-8399, Santa-Cruz); HOXA1 at 1:50 dilution (SC-17146, Santa-Cruz); NCAM-1 at 1:150 dilution (AF2408, R&D Systems); SOX17 at 1:400 dilution (AF1924, R&D Systems). The sections were then incubated for 1 hour with the appropriate secondary antibody (Cy-3, Jackson ImmunoResearch) at room temperature. Finally, sections were counterstained with Hoechst (B2883, Sigma) for 10 minutes at room temperature.
Specifically, the protein levels of the fetal liver specific gene AFP and the earlier endodermal marker SOX17 were examined to assess the effects of ethanol treatment. The effect of RA treatment on neural differentiation was determined using antibodies for the HOXA1 protein and the neuronal specific protein NCAM1.

[3] = tested on: human embryoid bodies (H9 HESCs); test: DNA microarray global gene expression profiling of treated HESC embryoid bodies; settings: for genes whose expression was significantly changed (over two-fold) relative to untreated controls: EBs treated seven days
Protocol: Differentiation in-vitro into embryoid bodies (EBs) was performed by trypsinizing confluent cultures using 0.25% trypsin-A in DPBS solution (Biological industries, Beit-Haemek, Israel) for 15 seconds to dissociate the colonies into large clumps. Clumps were then transferred 1:1 into non-stick petri dishes and grown in regular HESC medium but without exogenous FGF2.
Drug treatments: Embryoid body media were supplemented with the various treatment compounds on the first day and changed on alternate days. […] Thalidomide (Sigma, T144) was dissolved in DMSO at 1000× stock solution and used at a final concentration of 10 μg/ml. All-trans-Retinoic acid (Sigma, R2625) was dissolved in DMSO at 100,000× stock solution and used at a final concentration of 1 μM.
Microarray data analysis: Following seven days in culture, embryoid bodies were harvested and RNA was extracted using RBC Bioscience (Taipei, Taiwan) total RNA extraction minikit (YRB50) according to the manufacturer's protocol. Hybridization to GeneChip Human Gene 1.0 ST expression arrays, washing and scanning were performed according to the manufacturer's protocol (Affymetrix). Arrays were analyzed using RMA probeset condensation algorithm (Expression Console, Affymetrix). […] Tissue specific genes were identified by comparing the expression of each of the five most relevant tissues to the mean expression of all other tissues (testis, brain, heart, spleen, skeletal muscle, kidney, liver, and breast). The top 200 genes by fold change for every tissue were regarded to be tissue specific genes.
Genes were considered differentially expressed when changed over two-fold. […] Significance was calculated separately for each test using a Chi-Square independence test and corrected for multiple testing (Bonferroni). […] Functional classification and significance were performed using the DAVID online functional annotation tool (worldwidewebdotdaviddotabccdotncifcrfdotgov/) using default settings, with a minimum p-value of 0.0001. General annotations with over 2000 members were removed from the analysis.

human = settings: in vivo; cited from earlier work
rodents = settings: in vivo; cited from earlier work
mouse = settings: in vivo; cited from earlier work
[4] = lithium chloride 1 mM, caffeine 50 mg/ml, RA 1 μM, thalidomide 10 μg/ml
[5] = seven days, RA 1 μM, thalidomide 10 μg/ml
[6] = Gene Ontology functional annotation (DAVID), thalidomide 10 μg/ml

CC1=C(/C=C/C(C)=C/C=C/C(C)=C/C(=O)O)C(C)(C)CCC1 [RA, All-trans-Retinoic acid]
expression of anterior HoxA and HoxB genes [1]: specifically upregulated
NCAM1 abundance at the protein level ([2]; 1 μM all-trans-retinoic acid, seven days): increase
differentiation into the neuronal lineage (HOXA1 and NCAM1 labeling) ([2]; RA treatment): higher differentiation into the neuronal lineage
genes whose expression was significantly changed (over two-fold) relative to untreated controls [3, 4]: several hundred
homeobox protein genes enriched in upregulated genes, fold above expected frequency ([3]; Gene Ontology functional annotation (DAVID), RA 1 μM): 14.1 fold
expression of anterior HoxA and HoxB genes ([3]; HESC EBs, RA 1 μM, seven days): specifically upregulated
HOXA1 overexpression at the mRNA level ([3]; RA 1 μM, seven days, relative to control): 13.6 fold
fold enrichment of heart specific genes in downregulated genes ([3]; seven days, RA 1 μM): 5.3
fold enrichment of brain specific genes in upregulated genes [3, 5]: 2.6 fold

CC(=O)Oc1ccccc1C(=O)O [aspirin]
teratogenicity in humans (human): not in humans
teratogenicity in rodents (rodents): teratogenic

CCO [ethanol, Ethanol]
AFP staining (protein level) ([2]; 1.5% ethanol, seven days): dramatic increase
SOX17 staining (protein level) ([2]; 1.5% ethanol, seven days): dramatic increase
AFP staining (protein level) ([2]; 1.5% ethanol, seven days, listed as Ethanol): elevation of AFP staining
enriched functional annotations for downregulated genes ([3]; DAVID functional annotation, ethanol): no significantly enriched functional annotations
genes whose expression was significantly changed (over two-fold) relative to untreated controls ([3]; 0.5% ethanol (v/v)): little or no effect
genes whose expression was significantly changed (over two-fold) relative to untreated controls ([3]; ethanol 1.5% and 2%, analyzed together): several hundred
liver protein genes, upregulated functional group enrichment ([3]; Gene Ontology functional annotation (DAVID), ethanol treated EBs): 9.3 fold
expression of later adult hepatic markers (albumin, alcohol dehydrogenase genes) ([3]; ethanol treated EBs): not upregulated
expression of early hepatic markers (AFP, transthyretin, apolipoprotein and fibrinogen genes) ([3]; high ethanol (1.5% and 2%)): specifically upregulated

O=C1CCC(N2C(=O)c3ccccc3C2=O)C(=O)N1 (centres unmarked) [thalidomide, Thalidomide]
teratogenicity in the mouse (mouse): not identified prospectively as such
teratogenicity in humans (human): strong human teratogen
genes whose expression was significantly changed (over two-fold) relative to untreated controls [3, 4]: several hundred
downregulation of oxidative stress response genes, enrichment [3, 6]: 15.8 fold
nervous system development genes affected, enrichment [3, 6]: 2.5 fold
transforming growth factor beta genes affected, enrichment [3, 6]: 29.6 fold
upregulation of genes responsible for metabolism of xenobiotics, enrichment [3, 6]: 11.5 fold
fold enrichment of brain specific genes in upregulated genes [3, 5]: 12.5 fold
fold enrichment of liver specific genes in downregulated genes ([3]; seven days, thalidomide 10 μg/ml): 4.4 fold
